Literature values as cited in PMC7318222, “A Family of Water‐Immiscible, Dipolar Aprotic, Diamide Solvents from Succinic Acid” (Chemsuschem, 2020).
Marks after values point to notes of the source that are not given here.

What was measured:
[1] = design: method as in PubChem; settings: data obtained from PubChem; ref PubChem; cited from earlier work
[2] = design: key to C (carcinogenicity) / M (mutagenicity) / R (reproduction toxicity) / S (skin sensitization): −: absence of property; +: presence of property; ?: no prediction possible; settings: cited from earlier work
[3] = exp: conclusion based on reliable experimental data

Structure (SMILES)	Log P (o/w) [1]	C (carcinogenicity) [2, 3]	M (mutagenicity) [2, 3]	R (reproduction toxicity) [2, 3]	S (skin sensitization) [2, 3]	C (carcinogenicity), in words ([2]; experimental data)	M (mutagenicity), in words ([2]; experimental data)	R (reproduction toxicity), in words ([2]; experimental data)	S (skin sensitization), in words ([2]; experimental data)
CN1CCCC1=O [NMP, N‐methyl‐2‐pyrrolidone, reference compound]	−0.38^[d]	− (exp)	− (exp)	+ (exp)	− (exp)	negative	negative	positive	negative
CCCCN1CCCC1=O [NBP, N‐Butylpyrrolidinone, reference compound]			− (exp)	− (exp)	− (exp)		negative	negative	negative
